Measured values published in patent US4414225A, “Azepine derivatives and their anti-thrombotic compositions and methods” (Dr. Karl Thomae Gesellschaft mit beschrankter Haftung, priority 1981, dated 1983).

Tests used:
[1] = system: thrombocytes of healthy human test subjects; assay: Born test: collagen-induced thrombocyte aggregation, with and without PGI2 (in vitro); type: cell-based; details: n = 4; for inhibition at 100 µM: Homo sapiens; for mm height of curve (Born test): control 129
Description: (§1) 2. Antithrombotic Activity: (a) The thrombocytes of healthy human test subjects were incubated for 10 minutes at 37° C. with the test substance (final concentration: 1×10^-4 mol/l). Then, aggregation was initiated with collagen in the Born test in the usual way. Shortly before aggregation was initiated, a small quantity of supernatant liquid containing prostacycline, which was obtained from rings of aorta placed in the TRIS buffer, was added to the test sample. The quantity of supernatant liquid containing prostacycline was selected so that on its own it had little or no inhibiting effect. The sample incubated with the substance reacted with PGI2 to give an inhibition of aggregation which was more than additive.

[2] = system: thrombocytes of healthy human test subjects; assay: Adenosine-potentiating effect in the Born Test (thrombocyte aggregation); type: cell-based; details: n = 4; for mm height of curve (Born test): control 114
thrombocyte aggregation = assay: Prostacycline-reinforcing effect after oral administration in animals (Born Test on blood sample); type: in vivo, rat
Description: as §1, with “(a)” for “2. Antithrombotic Activity: (a)”
(c) Prostacycline-reinforcing effect after oral administration in animals:
Rats weighing 450 gm were given the compound orally at a dose of 20 mg/kg; then, after one hour, a blood sample was taken and the Born Test was carried out as described above.

Acute toxicity = type: in vivo; details: maximum doses used (50 mg/kg per os)
normolipemic rat = assay: Cholesterol-reducing effect: test on the normolipemic rat; type: in vivo; details: 1.1 mg/kg (A) or 20.0 mg/kg (B), by esophageal tube twice with interval of 20 hours, serum after 28 and 44 hours
Description: (§2) 1. Cholesterol-reducing effect
(b) Test on the normolipemic rat:
Male normolipemic rats with an average body weights of 250 to 300 gm were given the test compound by esophageal tube twice with an interval of 20 hours. At the start of the test, the animals were deprived of food but had free access to drinking water. The serum cholesterol levels were determined enzymatically (Boehringer Mannheim Test Combination 126.039) after 28 and 44 hours. The percentage reduction was calculated in comparison with a control group: […]

hyperlipemic rat = assay: Cholesterol-reducing effect: test on the hyperlipemic rat; type: in vivo; details: 50 mgm/kg by esophageal tube on two successive days, serum 24 hours after final administration
Description: as §2
(a) Test on the hyperlipemic rat: Literatur: P. E. Schurr et al., Atherosclerosis Drug Discovery (1976), published by C. E. Day; Plenum, New York, page 215.
Young male rats with an average body weight of 100 gm were made hypercholesterolemic by feeding them for 4 days on a diet consisting of 10% coconut oil, 1.5% cholesterol, 0.5% cholic acid, 0.2% choline chloride and 15% sucrose. While continuing with the diet, the test compound was administered in a methyl cellulose suspension by esophageal tube on two successive days. The animals were then made to fast overnight and 24 hours after the final administration of the test compound a blood sample was taken in order to obtain serum.
In the serum, the total cholesterol was determined enzymatically (Boehringer Mannheim Test Combination 126 039) and the β-lipoproteinswere determined by nephelometry, after precipitation with Ca^++ and heparin, in the Autoanalyzer. The percentage reduction was calculated by comparison with a control group: […]

[3] = PRP + compound C (1×10^-4 mol/l) + PGI2, collagen
[4] = PRP + compound C alone, 1×10^-4 mol/l, collagen
[5] = PRP + compound C alone (1 × 10^-4)

Compound: Cl.Clc1ccccc1CN1CCc2ccsc2CC1 [C, 6-(2-Chlorobenzyl)-5,6,7,8-tetrahydro-4H-thieno[2,3-d]azepine hydrochloride]
- inhibition at 100 µM [1, 3]: 69%
- inhibition at 100 µM [1, 4]: 20.7%
- mm height of curve (Born test) [1, 3]: 38 mm
- mm height of curve (Born test) [1, 4]: 101 mm
- % inhibition of thrombocyte aggregation ([2]; PRP + compound C + adenosine): 61%
- mm height of curve (Born test) ([2]; PRP + compound C + adenosine): 44 mm
- % inhibition of thrombocyte aggregation [2, 5]: 33%
- mm height of curve (Born test) [2, 5]: 75 mm
- inhibition of aggregation (thrombocyte aggregation; rats treated with 20 mg/kg per os of compound C, blood sample after one hour, without PGI2, averages from three sets of tests on four animals): 4%
- inhibition of aggregation (thrombocyte aggregation; rats treated with compound C, 20 mg/kg per os, blood sample after one hour, + PGI2): 100%
- toxic side effects (Acute toxicity): no toxic side effects were observed

Compound: Cl.O=C(O)c1cc2c(s1)CCN(Cc1ccccc1)CC2 [A, 6-Benzyl-5,6,7,8-tetrahydro-4H-thieno[2,3-d]azepine-2-carboxylic acid hydrochloride]
- Percentage reduction compared with control: Total cholesterol in the serum (normolipemic rat): -26%
- toxic side effects (Acute toxicity): no toxic side effects were observed

Compound: CCCCCCCCCCCCN1CCc2cc(C(=O)[O-])sc2CC1.[Na+]
- Percentage reduction compared with controls: Cholesterol in the serum (hyperlipemic rat): -21%
- Percentage reduction compared with controls: β-lipoproteins in the serum (hyperlipemic rat): -51%
- Percentage reduction compared with control: Total cholesterol in the serum (normolipemic rat): -20%
- toxic side effects (Acute toxicity): no toxic side effects were observed

Compound: PGI2 [reference compound]
- % inhibition of thrombocyte aggregation ([1]; PRP + PGI2 alone, collagen): 30%
- mm height of curve (Born test) ([1]; PRP + PGI2 alone, collagen): 90 mm
- inhibition of aggregation (thrombocyte aggregation; plasma of control animals + PGI2): 20%

Compound: Nc1ncnc2c1ncn2[C@@H]1O[C@H](CO)[C@@H](O)[C@H]1O [adenosine, reference compound]
- % inhibition of thrombocyte aggregation ([2]; PRP + adenosine alone): 20%
- mm height of curve (Born test) ([2]; PRP + adenosine alone): 91 mm
